The record followed here is publication PMC8001995, “Sea Anemone Kunitz-Type Peptides Demonstrate Neuroprotective Activity in the 6-Hydroxydopamine Induced Neurotoxicity Model” (Biomedicines, 2021).

Experiment [1] relates to Neuro-2a cells. Description: Intracellular ROS level, DCFH-DA probe, 6-OHDA-treated cells. In kind it is cell-based, murine. The conditions noted are these: 25 µM 6-OHDA 30 min, no peptide. The method, then:
(§1) Neuro-2a neuroblastoma cells (ATCC® CCL-131™) were obtained from American Type Culture Collection (Manassas, VA, USA). The cells were cultivated in DMEM medium (BioloT, St. Petersburg, Russia) supplemented with 10% of fetal bovine serum (BioloT, Russia) and 1% penicillin/streptomycin (BioloT, St. Petersburg, Russia) at 37 °C and 5% CO2. Initially, cells were incubated in cultural flasks until sub-confluent (~80%). For testing, Neuro-2a cells were seeded in 96-well plates and experiments were started after 24 h.
The level of intracellular ROS was measured using the ROS sensitive dye, 2,7-dichloro-fluorescein diacetate (DCFH-DA), as a probe. In brief, Neuro-2a cells were seeded in 96-well plates at 1 × 10^4 cells/well, culturing in the presence or absence of various concentrations of tested peptides for 1 h, and then 6-OHDA (25 µM) was added in each well for 30 min at 37 °C with 5% CO2. […] The fluorescence of 2,7-dichlorofluorescein (DCF) was detected with PHERAstar FS fluorescent plate reader (BMG Labtech, Ortenberg, Germany) at λex = 485 nm and λem = 518 nm. […] The cytoprotective effect of peptides and the increase in cell viability under their action was calculated as a percentage, taking the cell viability treated with 6-OHDA as 100%.

Experiment [2] has as its system Neuro-2a cells. Description: 6-Hydroxydopamine-induced cytotoxicity (neuroprotection), MTT. It is filed as cell-based, murine. The conditions noted are these: 25 µM 6-OHDA 24 h, no peptide; versus control. How it is done:
as §1
Neuro-2a cells were seeded at 1 × 10^4 cells/well in 96-well plates for studying of neuroprotective activity of peptides. The tested peptides were added to the cell monolayer and cells were incubated at 37 °C for 1 h. Then, the cells were exposed to 6-OHDA (Sigma-Aldrich, St. Louis, MO, USA) at 25 µM for 24 h at 37 °C with 5% CO2. Thereafter, the medium was replaced with clean serum-free medium, and the number of viable cells was determined by MTT assay. Neuro-2a cells were cultured without test compound or neurotoxins as the control group. Results were expressed in percentage of control as the mean ± SEM of three independent replicates.

A short description of experiment [3]: DPPH radical scavenging cell free assay. The conditions noted are these: 10 µM compound, 30 min, absorbance 520 nm, versus MeOH control, mean ± SEM of three independent replicates. How it is done: The 2,2-diphenyl-1-picryl-hydrazyl-hydrate (DPPH) radical scavenging activity was tested as described previously. The compound solutions (120 µL) were dispensed into wells of a 96-well microplate. The DPPH (Sigma-Aldrich, Germany) was dissolved in MeOH at concentration of 7.5 µM and the solution (30 µL) was added to each well. The concentrations of tested compounds in the mixtures were 10 µM. The mixtures were shaken and left for 30 min. The absorbance of the resulting solutions was measured at λ = 520 nm with a MultiscanFC plate reader (Thermo Fisher Scientific, Waltham, MA, USA). The scavenging of the DPPH radical in comparison with control (MeOH) (%) was calculated for each compound. Ascorbic acid at 10 µM was used as positive control.
For orientation: The DPPH test is a chemical assay of radical scavenging.

As for `NCCc1cc(O)c(O)cc1O` [Peptide 6-OHDA, 6-hydroxydopamine], the “ROS level in 6-OHDA-treated cells” value in the experiment on Neuro-2a cells [1] is on record as “up to 130 % to the control level”. In the experiment with Neuro-2a cells [2], the “Viability of Neuro-2a cells treated with 6-OHDA” value is 42.6%.

Turning to `O=C1O[C@H]([C@@H](O)CO)C(O)=C1O` [Ascorbic acid], in experiment [3], the “Scavenging of DPPH Radicals” value is given as 33.8 ± 2.4%.
